Data reported in patent US20140308733A1, “METHOD FOR INDUCING GERMINATION OF SPORE FORMING BACTERIUM” (CALPIS CO., LTD., priority 2011, published 2014).

How the values were obtained:
Assay in all cases: Germination induction, change of turbidity (630 nm) of spore suspension
Assay type in all cases: cell-based
[1] = tested on: Aeribacillus pallidus TK6004 (FERM BP-08597); conditions: 300 ppm; for turbidity (630 nm): 37° C., 150 rpm; for germination confirmed by turbidity decrease: up to 180 min
[2] = tested on: Bacillus coagulans (NBRC 3887); conditions: 300 ppm; for turbidity (630 nm): 37° C., 150 rpm; for germination confirmed by turbidity decrease: up to 180 min
[3] = tested on: Bacillus amyloliquefaciens (NBRC 3032); conditions: 300 ppm; for turbidity (630 nm): 37° C., 150 rpm; for germination confirmed by turbidity decrease: up to 180 min
[4] = tested on: Bacillus coagulans (NBRC 12583); conditions: 300 ppm; for turbidity (630 nm): 37° C., 150 rpm; for germination confirmed by turbidity decrease: up to 180 min
[5] = tested on: Bacillus subtilis C-3102 (FERM BP-1096); conditions: 300 ppm; for turbidity (630 nm): 37° C., 150 rpm; for germination confirmed by turbidity decrease: up to 180 min
[6] = tested on: Bacillus subtilis sp spizizenii (NBRC 101239); conditions: 300 ppm; for turbidity (630 nm): 37° C., 150 rpm
[7] = tested on: Bacillus amyloliquefaciens (NBRC 3022); conditions: 300 ppm; for turbidity (630 nm): 37° C., 150 rpm; for germination confirmed by turbidity decrease: up to 180 min
[8] = 0 min after reaction initiation
[9] = 10 min after reaction initiation
[10] = 20 min after reaction initiation
[11] = 30 min after reaction initiation
[12] = 40 min after reaction initiation
[13] = 50 min after reaction initiation
[14] = 60 min after reaction initiation
[15] = 90 min after reaction initiation
[16] = 120 min after reaction initiation
[17] = 180 min after reaction initiation

For `COc1cc(/C=C/C(=O)O)ccc1O` [Ferulic acid, ferulic acid], the “turbidity (630 nm)” value [1, 8] was 0.484, the “turbidity (630 nm)” value [1, 9] was 0.450 and the “turbidity (630 nm)” value [1, 10] was 0.393. For the same molecule, the “turbidity (630 nm)” value [1, 11] was 0.276, the “turbidity (630 nm)” value [1, 12] was 0.193 and the “turbidity (630 nm)” value [1, 13] was 0.124. The “turbidity (630 nm)” value [1, 14] was 0.080, the “turbidity (630 nm)” value [1, 15] was 0.040 and the “turbidity (630 nm)” value [1, 16] was 0.016. For the same molecule, the “turbidity (630 nm)” value [1, 17] was 0.016, the “germination confirmed by turbidity decrease” value [1] was “the turbidity decreased” and the “turbidity (630 nm)” value [2, 8] was 0.566. The “turbidity (630 nm)” value [2, 9] was 0.531, the “turbidity (630 nm)” value [2, 10] was 0.500 and the “turbidity (630 nm)” value [2, 11] was 0.454. The “turbidity (630 nm)” value [2, 12] was 0.423, the “turbidity (630 nm)” value [2, 13] was 0.372 and the “turbidity (630 nm)” value [2, 14] was 0.340. For the same molecule, the “turbidity (630 nm)” value [2, 15] was 0.300, the “turbidity (630 nm)” value [2, 16] was 0.247 and the “turbidity (630 nm)” value [2, 17] was 0.209. The “germination confirmed by turbidity decrease” value [2] was “the turbidity decreased”, the “turbidity (630 nm)” value [3, 8] was 0.526 and the “turbidity (630 nm)” value [3, 9] was 0.505. For the same molecule, the “turbidity (630 nm)” value [3, 10] was 0.480, the “turbidity (630 nm)” value [3, 11] was 0.431 and the “turbidity (630 nm)” value [3, 12] was 0.397. The “turbidity (630 nm)” value [3, 13] was 0.353, the “turbidity (630 nm)” value [3, 14] was 0.316 and the “turbidity (630 nm)” value [3, 15] was 0.269. The “turbidity (630 nm)” value [3, 16] was 0.245, the “turbidity (630 nm)” value [3, 17] was 0.216 and the “germination confirmed by turbidity decrease” value [3] was “the turbidity decreased”. For the same molecule, the “turbidity (630 nm)” value [4, 8] was 0.558, the “turbidity (630 nm)” value [4, 9] was 0.520 and the “turbidity (630 nm)” value [4, 10] was 0.518. The “turbidity (630 nm)” value [4, 11] was 0.510, the “turbidity (630 nm)” value [4, 12] was 0.460 and the “turbidity (630 nm)” value [4, 13] was 0.392. The “turbidity (630 nm)” value [4, 14] was 0.350, the “turbidity (630 nm)” value [4, 15] was 0.266 and the “turbidity (630 nm)” value [4, 16] was 0.217. The “turbidity (630 nm)” value [4, 17] was 0.198, the “germination confirmed by turbidity decrease” value [4] was “the turbidity decreased” and the “turbidity (630 nm)” value [5, 8] was 0.602. The “turbidity (630 nm)” value [5, 9] was 0.578, the “turbidity (630 nm)” value [5, 10] was 0.558 and the “turbidity (630 nm)” value [5, 11] was 0.548. For the same molecule, the “turbidity (630 nm)” value [5, 12] was 0.535, the “turbidity (630 nm)” value [5, 13] was 0.506 and the “turbidity (630 nm)” value [5, 14] was 0.493. For the same molecule, the “turbidity (630 nm)” value [5, 15] was 0.471, the “turbidity (630 nm)” value [5, 16] was 0.430 and the “turbidity (630 nm)” value [5, 17] was 0.335. The “germination confirmed by turbidity decrease” value [5] was “the turbidity decreased”, the “turbidity (630 nm)” value [6, 8] was 0.534 and the “turbidity (630 nm)” value [6, 9] was 0.512. For the same molecule, the “turbidity (630 nm)” value [6, 10] was 0.495, the “turbidity (630 nm)” value [6, 11] was 0.471 and the “turbidity (630 nm)” value [6, 12] was 0.458. For the same molecule, the “turbidity (630 nm)” value [6, 13] was 0.439, the “turbidity (630 nm)” value [6, 14] was 0.414 and the “turbidity (630 nm)” value [6, 15] was 0.362. For the same molecule, the “turbidity (630 nm)” value [6, 16] was 0.306, the “turbidity (630 nm)” value [6, 17] was 0.224 and the “germination confirmed by turbidity decrease” value ([6]; up to 180 min) was “germination was confirmed”. For the same molecule, the “turbidity (630 nm)” value [7, 8] was 0.522, the “turbidity (630 nm)” value [7, 9] was 0.447 and the “turbidity (630 nm)” value [7, 10] was 0.400. The “turbidity (630 nm)” value [7, 11] was 0.328, the “turbidity (630 nm)” value [7, 12] was 0.234 and the “turbidity (630 nm)” value [7, 13] was 0.192. For the same molecule, the “turbidity (630 nm)” value [7, 14] was 0.133, the “turbidity (630 nm)” value [7, 15] was 0.094 and the “turbidity (630 nm)” value [7, 16] was 0.067. For the same molecule, the “turbidity (630 nm)” value [7, 17] was 0.030 and the “germination confirmed by turbidity decrease” value [7] was “the turbidity decreased”.

With `COc1cc(C(=O)O)ccc1O` [Vanillic acid, vanillic acid] the “turbidity (630 nm)” value [1, 8] was 0.482, the “turbidity (630 nm)” value [1, 9] was 0.444 and the “turbidity (630 nm)” value [1, 10] was 0.348. For the same molecule, the “turbidity (630 nm)” value [1, 11] was 0.243, the “turbidity (630 nm)” value [1, 12] was 0.158 and the “turbidity (630 nm)” value [1, 13] was 0.103. The “turbidity (630 nm)” value [1, 14] was 0.067, the “turbidity (630 nm)” value [1, 15] was 0.026 and the “turbidity (630 nm)” value [1, 16] was 0.010. For the same molecule, the “turbidity (630 nm)” value [1, 17] was 0.000, the “germination confirmed by turbidity decrease” value [1] was “the turbidity decreased” and the “turbidity (630 nm)” value [2, 8] was 0.559. The “turbidity (630 nm)” value [2, 9] was 0.550, the “turbidity (630 nm)” value [2, 10] was 0.473 and the “turbidity (630 nm)” value [2, 11] was 0.411. The “turbidity (630 nm)” value [2, 12] was 0.364, the “turbidity (630 nm)” value [2, 13] was 0.321 and the “turbidity (630 nm)” value [2, 14] was 0.295. The “turbidity (630 nm)” value [2, 15] was 0.230, the “turbidity (630 nm)” value [2, 16] was 0.182 and the “turbidity (630 nm)” value [2, 17] was 0.130. The “germination confirmed by turbidity decrease” value [2] was “the turbidity decreased”, the “turbidity (630 nm)” value [3, 8] was 0.519 and the “turbidity (630 nm)” value [3, 9] was 0.496. For the same molecule, the “turbidity (630 nm)” value [3, 10] was 0.485, the “turbidity (630 nm)” value [3, 11] was 0.435 and the “turbidity (630 nm)” value [3, 12] was 0.385. The “turbidity (630 nm)” value [3, 13] was 0.359, the “turbidity (630 nm)” value [3, 14] was 0.316 and the “turbidity (630 nm)” value [3, 15] was 0.278. For the same molecule, the “turbidity (630 nm)” value [3, 16] was 0.237, the “turbidity (630 nm)” value [3, 17] was 0.210 and the “germination confirmed by turbidity decrease” value [3] was “the turbidity decreased”. For the same molecule, the “turbidity (630 nm)” value [4, 8] was 0.590, the “turbidity (630 nm)” value [4, 9] was 0.528 and the “turbidity (630 nm)” value [4, 10] was 0.490. For the same molecule, the “turbidity (630 nm)” value [4, 11] was 0.430, the “turbidity (630 nm)” value [4, 12] was 0.390 and the “turbidity (630 nm)” value [4, 13] was 0.335. For the same molecule, the “turbidity (630 nm)” value [4, 14] was 0.290, the “turbidity (630 nm)” value [4, 15] was 0.225 and the “turbidity (630 nm)” value [4, 16] was 0.180. For the same molecule, the “turbidity (630 nm)” value [4, 17] was 0.137, the “germination confirmed by turbidity decrease” value [4] was “the turbidity decreased” and the “turbidity (630 nm)” value [5, 8] was 0.604. The “turbidity (630 nm)” value [5, 9] was 0.575, the “turbidity (630 nm)” value [5, 10] was 0.551 and the “turbidity (630 nm)” value [5, 11] was 0.543. The “turbidity (630 nm)” value [5, 12] was 0.505, the “turbidity (630 nm)” value [5, 13] was 0.483 and the “turbidity (630 nm)” value [5, 14] was 0.461. For the same molecule, the “turbidity (630 nm)” value [5, 15] was 0.432, the “turbidity (630 nm)” value [5, 16] was 0.390 and the “turbidity (630 nm)” value [5, 17] was 0.266. The “germination confirmed by turbidity decrease” value [5] was “the turbidity decreased”, the “turbidity (630 nm)” value [6, 8] was 0.529 and the “turbidity (630 nm)” value [6, 9] was 0.520. For the same molecule, the “turbidity (630 nm)” value [6, 10] was 0.516, the “turbidity (630 nm)” value [6, 11] was 0.512 and the “turbidity (630 nm)” value [6, 12] was 0.510. The “turbidity (630 nm)” value [6, 13] was 0.510, the “turbidity (630 nm)” value [6, 14] was 0.502 and the “turbidity (630 nm)” value [6, 15] was 0.488. For the same molecule, the “turbidity (630 nm)” value [6, 16] was 0.479, the “turbidity (630 nm)” value [6, 17] was 0.474 and the “turbidity (630 nm)” value [7, 8] was 0.548. The “turbidity (630 nm)” value [7, 9] was 0.402, the “turbidity (630 nm)” value [7, 10] was 0.295 and the “turbidity (630 nm)” value [7, 11] was 0.221. The “turbidity (630 nm)” value [7, 12] was 0.150, the “turbidity (630 nm)” value [7, 13] was 0.100 and the “turbidity (630 nm)” value [7, 14] was 0.076. For the same molecule, the “turbidity (630 nm)” value [7, 15] was 0.047, the “turbidity (630 nm)” value [7, 16] was 0.021 and the “turbidity (630 nm)” value [7, 17] was 0.018. For the same molecule, the “germination confirmed by turbidity decrease” value [7] was “the turbidity decreased”.
